We go through one compound from ChEMBL document CHEMBL6071186, “Design, Synthesis, and Structural Evaluation of Acetylated Phenylthioketone Inhibitors of HDAC10” (ACS Med Chem Lett, 2024).

The target in experiment [1] is T1, Polyamine deacetylase HDAC10 (Homo sapiens) (UniProt Q969S8).
T1 sequence (whole entry): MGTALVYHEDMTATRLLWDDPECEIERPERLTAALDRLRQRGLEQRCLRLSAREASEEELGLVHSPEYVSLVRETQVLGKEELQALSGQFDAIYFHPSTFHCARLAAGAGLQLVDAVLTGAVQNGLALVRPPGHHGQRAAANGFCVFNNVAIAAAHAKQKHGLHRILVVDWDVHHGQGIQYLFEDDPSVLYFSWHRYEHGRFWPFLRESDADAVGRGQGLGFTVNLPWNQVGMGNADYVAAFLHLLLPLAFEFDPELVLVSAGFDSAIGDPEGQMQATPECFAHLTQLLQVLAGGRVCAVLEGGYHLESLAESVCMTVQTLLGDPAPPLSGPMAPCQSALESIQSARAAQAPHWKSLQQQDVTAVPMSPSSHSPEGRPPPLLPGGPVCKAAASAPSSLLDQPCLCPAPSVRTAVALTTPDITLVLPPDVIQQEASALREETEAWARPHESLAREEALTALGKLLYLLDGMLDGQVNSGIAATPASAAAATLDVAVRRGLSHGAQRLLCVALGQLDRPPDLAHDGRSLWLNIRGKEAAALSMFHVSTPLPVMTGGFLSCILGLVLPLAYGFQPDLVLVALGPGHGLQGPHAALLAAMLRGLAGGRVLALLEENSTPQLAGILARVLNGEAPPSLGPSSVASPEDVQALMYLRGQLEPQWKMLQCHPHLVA
Conditions: dose 500.0 µM.
Description: Binding affinity to humanized HDAC10 (A24E to D94A residues) (unknown origin) extracted from Danio rerio assessed as thermal stability by measuring melting temperature at 500 uM by differential scanning fluorimetry analysis (Rvb = 47.8+/-0.1degreeC)

In experiment [2] the target is T1, Polyamine deacetylase HDAC10 (Homo sapiens). The following applies: dose 500.0 µM. This is another data set of the same source.
Description: Binding affinity to humanized HDAC10 (A24E to D94A residues) (unknown origin) extracted from Danio rerio assessed as change in melting temperature at 500 uM by differential scanning fluorimetry analysis

For orientation: ΔTm means the shift of the melting midpoint relative to a reference. Regarding `CN1CCc2c(c3ccccc3n2Cc2ccc(C(=O)NO)cc2)C1`, in experiment [1], the Tm was 65.5 °C. In addition, the ΔTm in experiment [2] came to 17.7 °C.
